System: TF-1 cells
Assay: Proliferation assay with TF-1 cells by MTT
Assay type: cell-based
Conditions: MTT-assay data, dose-response fitted with GraphPad
Procedure: TF-1 Cells in logarithmic growth phase (˜2×10^5−1×10^6 cells/ml; RPMI medium; 20% fetal calf serum; supplemented with Penicillin, streptomycin, L-Glutamine; 0.5 ng/ml Interleukin 3) are washed (centrifuge 5 min. 1500 rpm and resuspend in RPMI complete without IL3 at 500,000 cells/ml) and pre-cultured before start of the assay for 24 h without IL-3. At the next day the cells are seeded in 24- or 96-well plates usually using at least 6 concentrations and 4 wells per concentration containing at least 10,000 cells/well per agent to be tested. Each experiment includes controls comprising recombinant EPO as a positive control agent and wells without addition of cytokine as negative control agent. Peptides and EPO-controls are prediluted in medium to the desired concentrations and added to the cells, starting a culture period of 3 days under standard culture conditions (37° C., 5% carbon dioxide in the gas phase, atmosphere saturated with water). […]
At day 4, prior to start of the analysis, a dilution series of a known number of TF-1 cells is prepared in a number of wells (0/2500/5000/10000/20000/50000 cells/well in 100 μl medium). These wells are treated in the same way as the test wells and later provide a calibration curve from which cell numbers can be determined. […] 25 μl of 10% sodium dodecylsulfate in water are added to each well prior to measurement E492 in an ELISA Reader.

GGTYSCHFGGLTWVCKPQGG [SEQ. ID NO. 12] was tested, and the EC50 values was “no activity detectable”.

Source: patent US7589063B2, “Molecules which promote hematopoiesis” (Aplagen GmbH, priority 2004, dated 2009)
